Measured values: US20040161820A1 (priority 2001, published 2004)

Tests used:
Assay type in all cases: cell-based
SA-01 = experiment: organism not typed
L77 = experiment: MIC of G418 in liquid medium; settings: wild-type Amazon strain L77
Experimental: (§1) Bacterial strains used as plasmid hosts included: Escherichia coli DH5: F'lendA1 hsdr17 (rk^−mk^−) supE44 thi-1 recA1 gyrA(Nal^r) relA1 (lacZYA-argF)U169 deoR (80dlac (lacZ)M15) (Sambrook et al., 1989). Yeast were tested in solid medium YPD and eight industrial strains, from laboratory and seven Amazonian strains were sensitive to 200 μg/ml and 500 μg/ml of G418. Afterwards, the minimum concentration of antibiotic that inhibits the growth (MIC) in liquid medium was determined (Table 1).

L151 = experiment: MIC of G418 in liquid medium; settings: wild-type Amazon strain L151
Experimental: as §1

S288C = experiment: MIC of G418 in liquid medium; settings: Saccharomyces cerevisiae, strain S288C
Experimental: as §1

L136 = experiment: MIC of G418 in liquid medium; settings: wild-type Amazon strain L136
Experimental: as §1

L69 = experiment: MIC of G418 in liquid medium; settings: wild-type Amazon strain L69
Experimental: as §1

L101 = experiment: MIC of G418 in liquid medium; settings: wild-type Amazon strain L101
Experimental: as §1

L106 = experiment: MIC of G418 in liquid medium; settings: industrial strain L106
Experimental: as §1

BG 01 = experiment: MIC of G418 in liquid medium; settings: industrial strain BG 01
Experimental: as §1

L105 = experiment: MIC of G418 in liquid medium; settings: industrial strain L105
Experimental: as §1

L110 = experiment: MIC of G418 in liquid medium; settings: wild-type Amazon strain L110
Experimental: as §1

[1] = tested on: Montrachet de la Champagne; experiment: MIC of G418 in liquid medium; settings: industrial strain Montrachet de la Champagne
Experimental: as §1

PE-2 = experiment: MIC of G418 in liquid medium; settings: industrial strain PE-2
Experimental: as §1

L103 = experiment: MIC of G418 in liquid medium; settings: wild-type Amazon strain L103
Experimental: as §1

Fermix = experiment: MIC of G418 in liquid medium; settings: industrial strain Fermix
Experimental: as §1

CR-01 = experiment: MIC of G418 in liquid medium; settings: industrial strain CR-01
Experimental: as §1

YPH252 = experiment: MIC of G418 in liquid medium; settings: Saccharomyces cerevisiae, strain YPH252
Experimental: as §1

Work on `CN[C@@H]1[C@@H](O)[C@@H](O[C@@H]2[C@@H](O)[C@H](O[C@H]3O[C@H]([C@@H](C)O)[C@@H](O)[C@H](O)[C@H]3N)[C@@H](N)C[C@H]2N)OC[C@]1(C)O` [G418, geneticin] yielded an MIC (SA-01) of at most 50 µg/mL, an MIC (L77) of 25 µg/mL and an MIC (L151) of 12.5 µg/mL. For the same compound, the MIC (S288C) was 100 µg/mL, the MIC (L136) was 25 µg/mL and the MIC (L69) was 100 µg/mL. It also gave an MIC (L101) of 100 µg/mL, an MIC (L106) of 25 µg/mL and an MIC (BG 01) of at most 50 µg/mL. The MIC (L105) was 25 µg/mL, the MIC (L110) was 150 µg/mL and the MIC [1] was “≦50 μg/ml”. The MIC (PE-2) was at most 50 µg/mL, the MIC (L103) was 150 µg/mL and the MIC (Fermix) was at most 50 µg/mL. It also gave an MIC (CR-01) of at most 50 µg/mL and an MIC (YPH252) of at most 50 µg/mL.
